Each block holds one compound with its values, some of them ahead of it.
Experiment: solvent given as SMILES

absorption maximum (in CC#N): 432 nm
absorption maximum (in ClCCl): 436 nm
Structure (SMILES): COC(=O)c1cc(=O)n(Cc2ccccc2)c2cc(-c3ccc(N(C)C)cc3)sc12

absorption maximum (in CC#N): 317 nm
Structure (SMILES): C[n+]1ccc(/C=C/c2cc[n+](C)cc2)cc1

absorption maximum (in C1CCOC1): 634 nm
Structure (SMILES): Cc1ccc(C2=C3C=C4C(=[N+]3[B-](F)(F)n3c2cc2c3-c3ccccc3C23c2ccccc2-c2ccccc23)c2ccccc2C42c3ccccc3-c3ccccc32)cc1

absorption maximum (in CCO): 369 nm
Structure (SMILES): CCOC(=O)c1cc(C(=O)OCC)c2cccc(O)c2n1

Structure (SMILES): CN(C)c1ccc(C#Cc2ccc3ccc4c(C#Cc5ccc(N(C)C)cc5)ccc5ccc2c3c54)cc1
absorption maximum (in C1COCCO1): 430 nm
absorption maximum (in CC(C)=O): 447 nm
absorption maximum (in CCCCCC): 439 nm
absorption maximum (in CCCCCCO): 430 nm
absorption maximum (in CCO): 431 nm
absorption maximum (in CCOC(C)=O): 431 nm
absorption maximum (in CO): 436 nm
absorption maximum (in Cc1ccccc1): 433 nm
absorption maximum (in ClCCl): 439 nm

absorption maximum (in C1CCOC1): 516 nm
Structure (SMILES): CC(C)[Si](C#CC1=CC2=c3cc(C#C[Si](C(C)C)(C(C)C)C(C)C)c4nc(C(F)(F)C(F)(F)C(F)(F)F)nc5c(C#C[Si](C(C)C)(C(C)C)C(C)C)cc(c3c54)C3=CC(C#C[Si](C(C)C)(C(C)C)C(C)C)=C4N=C(C(F)(F)C(F)(F)C(F)(F)F)N=C1C4C32)(C(C)C)C(C)C (stereo not given)

Structure (SMILES): N#Cc1c(-n2c3ccccc3c3ccccc32)cc(N2c3ccccc3C(c3ccccc3)(c3ccccc3)c3ccccc32)cc1-n1c2ccccc2c2ccccc21
absorption maximum (in Cc1ccccc1): 368 nm

Structure (SMILES): COc1cc(C2=C(c3ccc(C(C)(C)C)cc3)C(c3ccc(C(C)(C)C)cc3)=[N+]3C2=Nc2c(-c4cc(OC)c(OC)c(OC)c4)c(-c4ccc(C(C)(C)C)cc4)c(-c4ccc(C(C)(C)C)cc4)n2[B-]3(F)F)cc(OC)c1OC
absorption maximum (in Cc1ccccc1): 675 nm

absorption maximum (in C1CCCCC1): 374.83 nm
Structure (SMILES): CC(C)c1cc(C(C)C)c(B2c3cc(N4c5ccccc5C(C)(C)c5ccccc54)ccc3N(c3ccccc3)c3ccc(N4c5ccccc5C(C)(C)c5ccccc54)cc32)c(C(C)C)c1

Structure (SMILES): CCC1(CC)c2cc(C#Cc3cc(C#Cc4ccc5c(c4)C(CC)(CC)c4cc(N(c6ccccc6)c6ccccc6)ccc4-5)c4ccc5c(C#Cc6ccc7c(c6)C(CC)(CC)c6cc(N(c8ccccc8)c8ccccc8)ccc6-7)cc(C#Cc6ccc7c(c6)C(CC)(CC)c6cc(N(c8ccccc8)c8ccccc8)ccc6-7)c6ccc3c4c65)ccc2-c2ccc(N(c3ccccc3)c3ccccc3)cc21
absorption maximum (in C1CCCCC1): 500 nm
absorption maximum (in C1CCOC1): 506 nm
absorption maximum (in CCOC(C)=O): 502 nm
absorption maximum (in CN(C)C=O): 506 nm
absorption maximum (in Cc1ccccc1): 503 nm
absorption maximum (in ClC(Cl)Cl): 503 nm
absorption maximum (in ClCCl): 504 nm

Structure (SMILES): CCC1=C(C)C2=Cc3cc(I)cn3[B-](F)(F)[N+]2=C1C
absorption maximum (in C1CCCCC1): 528 nm
absorption maximum (in CC(C)=O): 509.5 nm
absorption maximum (in CCO): 514 nm
absorption maximum (in CCOC(C)=O): 513 nm
absorption maximum (in CO): 511.5 nm
absorption maximum (in OCC(F)(F)F): 504 nm

absorption maximum (in C1COCCO1): 444 nm
absorption maximum (in CC#N): 444 nm
absorption maximum (in CCCCOCCCC): 444 nm
absorption maximum (in CCOC(C)=O): 443 nm
Structure (SMILES): c1ccc(Nc2nc(Nc3ccccc3)nc(Nc3ccc4c5cccc6cccc(c7cccc3c74)c65)n2)cc1

absorption maximum (in C1CCOC1): 366 nm
Structure (SMILES): N#Cc1cc(-n2c3ccccc3c3ccccc32)c(-n2c3ccccc3c3cc(Br)ccc32)cc1C#N

Structure (SMILES): COc1ccc(-c2nnc(-c3cc(-c4nnc(-c5ccc(OC)cc5)o4)c(-n4c5ccccc5c5ccccc54)cc3-n3c4ccccc4c4ccccc43)o2)cc1
absorption maximum (in Cc1ccccc1): 371 nm

absorption maximum (in CC#N): 371 nm
Structure (SMILES): CN(C)c1ccc(-c2nc3nccnc3n2-c2ccccc2)cc1

absorption maximum (in ClCCl): 429 nm
Structure (SMILES): N#Cc1cc(/C=C/c2ccc(/C=C/c3ccc(N(c4ccccc4)c4ccccc4)cc3)c(C#N)c2)ccc1/C=C/c1ccc(N(c2ccccc2)c2ccccc2)cc1

absorption maximum (in C1CCCCC1): 489 nm
absorption maximum (in CC#N): 504 nm
absorption maximum (in CCO): 506 nm
Structure (SMILES): COc1cc(OC)c2c(c1)C(=O)c1cc(OC)cc(OC)c1-2

absorption maximum (in C1CCCCC1): 361 nm
absorption maximum (in CC#N): 355 nm
absorption maximum (in CO): 343 nm
absorption maximum (in ClCCl): 362 nm
absorption maximum (in O): 355 nm
Structure (SMILES): Oc1ccc2ccccc2c1-c1nc(-c2ccccc2)c2ccccn12

absorption maximum (in CC#N): 304 nm
Structure (SMILES): Cc1ccc(C#Cc2ccc3ccc(=O)oc3c2)cc1

Structure (SMILES): CC(C)(C)c1cc2ccc3cc(C(C)(C)C)cc4c3c2c(c1)c(=O)n1c4nc2c3cc(C(C)(C)C)cc4ccc5cc(C(C)(C)C)cc(c5c43)c21
absorption maximum (in C1CCOC1): 395 nm
absorption maximum (in CC#N): 394 nm
absorption maximum (in CC(C)=O): 395 nm
absorption maximum (in CCCCCC): 399 nm
absorption maximum (in CCO): 395 nm
absorption maximum (in CCOC(C)=O): 393 nm
absorption maximum (in CO): 382 nm
absorption maximum (in CS(C)=O): 394 nm
absorption maximum (in Cc1ccc(C)cc1): 396 nm
absorption maximum (in ClC(Cl)(Cl)Cl): 401 nm
absorption maximum (in ClC(Cl)Cl): 401 nm
absorption maximum (in c1ccccc1): 395 nm

Structure (SMILES): COc1ccc(C2=C3C=c4c(oc5cc6c(cc45)[C@H]4CC[C@]5(C)C(=O)CC[C@H]5[C@@H]4CC6)=[N+]3[B-](F)(F)n3c2cc2c4cc5c(cc4oc23)CC[C@@H]2[C@@H]5CC[C@]3(C)C(=O)CC[C@@H]23)cc1
absorption maximum (in CCOC(C)=O): 596.5 nm
absorption maximum (in CCOCC): 596.5 nm
absorption maximum (in CO): 595.5 nm

absorption maximum (in ClCCl): 388 nm
Structure (SMILES): FC(F)(F)c1ccc(B2c3ccccc3Nc3ccccc32)c(C(F)(F)F)c1

absorption maximum (in CS(C)=O): 449 nm
Structure (SMILES): BrC1=CN2C[n+]3cc(Br)cc(Br)c3N=C2C(Br)=C1

Structure (SMILES): COc1ccc(-c2nc(-c3ccccc3)c(N(C)C)[se]2)cc1
absorption maximum (in ClC(Cl)Cl): 339 nm

absorption maximum (in C1CCCCC1): 407 nm
absorption maximum (in CC#N): 420 nm
absorption maximum (in CCO): 431 nm
absorption maximum (in c1ccccc1): 416 nm
Structure (SMILES): Nc1cccc2c1C(=O)c1ccccc1-2

Structure (SMILES): CC1=CC(c2ccc3ccccc3c2)=[O+][B-]2(OC(=O)C(=O)O2)O1
absorption maximum (in CC#N): 400 nm
absorption maximum (in ClC(Cl)(Cl)Cl): 400 nm

absorption maximum (in C1CCOC1): 411 nm
Structure (SMILES): COc1cc2c(cc1-c1ccc(C)cc1)Cc1c3c(c4c(c1-2)-c1cc(OC)c(-c2ccc(C)cc2)cc1C4)C(=O)N(CCC(C)C)C3=O

absorption maximum (in C1COCCO1): 394 nm
absorption maximum (in CC#N): 397 nm
absorption maximum (in CCCCOCCCC): 396 nm
absorption maximum (in CCOC(C)=O): 398 nm
Structure (SMILES): COc1nc(Cl)nc(Nc2ccc3cc4ccccc4cc3c2)n1

absorption maximum (in CC#N): 446 nm
Structure (SMILES): Cc1ccc2c(c1)nc1c(=O)n(C)c(=O)nc-1n2C

absorption maximum (in ClCCl): 356 nm
absorption maximum (in O): 346 nm
Structure (SMILES): Oc1c(-c2cccs2)cccc1-c1nc2ccccc2s1

absorption maximum (in CCO): 590 nm
absorption maximum (in O): 580 nm
Structure (SMILES): CC/[NH+]=c1\cc2oc3cc(NCCC(=O)O)c4ccccc4c3nc-2cc1C

Structure (SMILES): CCn1c2cc(C(C)(C)C)ccc2c2c3nsnc3c3c4ccc(C(C)(C)C)cc4n(CC)c3c21
absorption maximum (in CN(C)C=O): 430 nm
absorption maximum (in Cc1ccccc1): 425 nm
absorption maximum (in ClCCl): 430 nm

absorption maximum (in ClCCl): 357 nm
Structure (SMILES): O=c1cc(-c2nc3ccccn3c2NC2CCCCC2)occ1OCc1ccccc1

absorption maximum (in ClCCl): 459 nm
Structure (SMILES): c1ccc(N(c2ccccc2)c2ccc(-c3ccc(-c4ccc(N(c5ccccc5)c5ccccc5)cc4)c4nsnc34)cc2)cc1

absorption maximum (in C1COCCO1): 345 nm
absorption maximum (in CC#N): 344 nm
absorption maximum (in CO): 342 nm
absorption maximum (in ClCCl): 348 nm
Structure (SMILES): CN(C)c1nc(N(C)C)c2nc(C#N)n(Cc3ccccc3)c2n1

absorption maximum (in ClCCl): 410 nm
Structure (SMILES): CC(C)(C)c1ccc(C#Cc2c(C#Cc3ccc(C(C)(C)C)cc3)c3cccc4c(C#Cc5ccc(C(C)(C)C)cc5)c(C#Cc5ccc(C(C)(C)C)cc5)c5cccc2c5c34)cc1

absorption maximum (in CC1CCCCC1): 321 nm
absorption maximum (in CC#N): 305 nm
absorption maximum (in CO): 305 nm
Structure (SMILES): COC(=O)C(NC(=O)OC(C)(C)C)c1ccc2oc(-c3cccc(Oc4ccccc4)c3)nc2c1 (stereo not given)

absorption maximum (in ClCCl): 402 nm
Structure (SMILES): C(=C\c1ncnc2ccccc12)/c1ccc(-c2ccc(N(c3ccccc3)c3ccccc3)cc2)cc1

absorption maximum (in ClCCl): 385 nm
Structure (SMILES): Cc1cccc(-c2c3ccccc3cc3ccccc23)n1

Structure (SMILES): CC[N+]1(CC)CN2C(=N1)C(C(=O)O)=Cc1cc(C)c(C)cc12
absorption maximum (in O): 378 nm

absorption maximum (in CC#N): 373 nm
Structure (SMILES): Cc1ccc(-c2ccc(/C=C/c3ccc(Br)n3C)cn2)nc1

Structure (SMILES): CCN(CC)c1ccc2c(C#N)c(/C=C(\C#N)c3nc4ccccc4s3)c(=O)oc2c1
absorption maximum (in C1COCCO1): 561 nm
absorption maximum (in CC#N): 597 nm
absorption maximum (in CCO): 602 nm
absorption maximum (in CCOC(C)=O): 568 nm
absorption maximum (in CN(C)C=O): 525 nm
absorption maximum (in CO): 591 nm
absorption maximum (in CS(C)=O): 531 nm
absorption maximum (in Cc1ccccc1): 560 nm
absorption maximum (in ClCCl): 611 nm

absorption maximum (in CC1CCCCC1): 387 nm
absorption maximum (in CC#N): 387 nm
Structure (SMILES): C(=C\c1ccnc2ccccc12)/c1c2ccccc2cc2ccccc12

absorption maximum (in ClCCl): 402 nm
absorption maximum (in O): 509 nm
absorption maximum (in OCC(O)CO): 496 nm
Structure (SMILES): C[n+]1ccc(/C=C/c2ccc(N(c3ccccc3)c3ccc(/C=C/c4cc[n+](C)cc4)cc3)cc2)cc1

absorption maximum (in O): 400 nm
Structure (SMILES): Fc1ccc2cc3cccc[n+]3cc2c1

absorption maximum (in ClCCl): 349 nm
Structure (SMILES): Cc1ccc(/N=C2\N=C(N)c3cccc4cccc2c34)cc1

absorption maximum (in ClCCl): 333 nm
Structure (SMILES): c1ccc2c(-c3cc4c(ccc5sc(-c6cccc7ccccc67)cc54)s3)cccc2c1

absorption maximum (in CO): 784 nm
Structure (SMILES): CC1(C)C(/C=C/C2=C(Cl)C(=C/C=C3/N(Cc4ccc(F)cc4)c4ccccc4C3(C)C)/CCC2)=[N+](Cc2ccc(F)cc2)c2ccccc21

absorption maximum (in CC1CCCO1): 476 nm
Structure (SMILES): COc1c(-c2c(OC)c3cccc4ccc5oc(=O)cc2c5c43)c2cc(=O)oc3ccc4cccc1c4c32

absorption maximum (in C1CCCCC1): 307 nm
Structure (SMILES): COC(=O)c1noc(-c2ccccc2)c1Br

absorption maximum (in ClCCl): 390 nm
Structure (SMILES): Cc1c(C(=O)c2ccccc2Cl)c2ccc3cccc4c5cccc6ccc1c(c65)c2c34

absorption maximum (in CC#N): 334 nm
Structure (SMILES): COC(=O)c1c(NC(C)(C)C)oc(-c2ccccc2)c1C(=O)OC

absorption maximum (in C1COCCO1): 534 nm
absorption maximum (in CN(C)C=O): 542 nm
absorption maximum (in CO): 536 nm
absorption maximum (in CS(C)=O): 546 nm
Structure (SMILES): O=C1/C(=C2\Sc3ccc(S(=O)(=O)Nc4ccccc4)cc3C2=O)Sc2ccc(S(=O)(=O)Nc3ccccc3)cc21

Reference: the Deep4Chem optical property database
